From patent EP4741383A1, “COMPOUND AND USE THEREOF AS ANTI-CANCER DRUG” (Tyligand Bioscience (Shanghai) Limited, priority 2023, dated 2025)

Legend:
[1] = molecular target: T1, CYP2B6 (Homo sapiens, UniProt P20813); experiment: CYP450 inhibition in human liver microsomes, CYP2B6; assay type: in vitro ADME; settings: pH 7.4, read-out: % CYP inhibition @ 10 µM 2B6
T1 construct: tissue Corning or Xenotech; host or cells: human liver microsomes
T1 sequence (P20813 1-491): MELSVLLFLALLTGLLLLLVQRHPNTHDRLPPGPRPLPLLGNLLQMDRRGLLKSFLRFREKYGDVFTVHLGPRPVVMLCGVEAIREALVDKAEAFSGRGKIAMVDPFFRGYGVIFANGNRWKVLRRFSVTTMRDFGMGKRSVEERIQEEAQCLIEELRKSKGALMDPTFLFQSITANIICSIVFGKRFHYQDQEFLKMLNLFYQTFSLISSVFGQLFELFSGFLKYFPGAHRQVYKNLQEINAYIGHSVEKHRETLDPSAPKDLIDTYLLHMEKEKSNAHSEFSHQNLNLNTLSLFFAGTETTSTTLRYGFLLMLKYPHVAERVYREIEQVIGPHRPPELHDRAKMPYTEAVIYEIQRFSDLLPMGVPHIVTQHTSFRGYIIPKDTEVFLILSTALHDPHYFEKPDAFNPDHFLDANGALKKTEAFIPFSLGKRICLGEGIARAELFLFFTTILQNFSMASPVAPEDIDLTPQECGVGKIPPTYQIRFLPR
Description: (§1) According to standard methods in the field for the study of cytochrome P450 enzyme systems, such as the method described in Kerns, Edward H. and Di Li et al., Drug-like Properties: Concepts, Structure Design and Methods: from ADME to Toxicity Optimization (2008), San Diego, Academic Press, and Lin, Tong et al., In Vitro Assessment of Cytochrome P450 Inhibition: Strategies for Increasing LC/MS-Based Assay Throughput Using a One-Point IC50 Method and Multiplexing High-Performance Liquid Chromatography (J. Pharm. Sci. 2007, 96 (9), 2485). The inhibitory effect of the disclosed compounds on the cytochrome P450 enzyme system was similarly examined below.
(§2) Human liver microsomes were purchased from Corning or Xenotech. The test compounds were evaluated by detecting the metabolism of substrates for different Cyp450 isoforms by human liver microsomes.
(§3) 0.1 M potassium phosphate buffer (K-buffer, pH 7.4) was pre-warmed.
(§4) 100 mM K-buffer was prepared by mixing 9.5 mL of stock solution A (1 M potassium dihydrogen phosphate, prepared by dissolving 136.5 g of potassium dihydrogen phosphate in 1 L of Milli-Q water) with 40.5 mL of stock solution B (1 M potassium hydrogen phosphate, prepared by dissolving 174.2 g of potassium hydrogen phosphate in 1 L of Milli-Q water). The total volume was adjusted to 500 mL with Milli-Q water, and the buffer was titrated to pH 7.4 using KOH or H3PO4.
(§5) Test compound solution and specific inhibitor solution (400× dilution) were prepared in a 96-well plate. For the test compound, 8 µL of 10 mM test compound was transferred into 12 µL of ACN. For specific inhibitors of CYP1A2, CYP2C9, and CYP2D6: 12 µL of 1 mM α-naphthoflavone, 10 µL of 40 mM sulfaphenazole, 10 µL of 10 mM quinidine, and 8 µL of DMSO were mixed. For specific inhibitors of CYP3A4, CYP2B6, CYP2C8, and CYP2C19: 8 µL of DMSO stock solution was added to 12 µL of ACN.
(§6) A 4× diluted NADPH solution was prepared by dissolving 66.7 mg of NADPH in 10 mL of 0.1 M K-buffer (pH 7.4). […]

[2] = molecular target: T2, CYP2C9 (Homo sapiens, UniProt P11712); experiment: CYP450 inhibition in human liver microsomes, CYP2C9; assay type: in vitro ADME; settings: pH 7.4, read-out: % CYP inhibition @ 10 µM 2C9
T2 construct: tissue Corning or Xenotech; host or cells: human liver microsomes
T2 sequence (P11712 whole entry): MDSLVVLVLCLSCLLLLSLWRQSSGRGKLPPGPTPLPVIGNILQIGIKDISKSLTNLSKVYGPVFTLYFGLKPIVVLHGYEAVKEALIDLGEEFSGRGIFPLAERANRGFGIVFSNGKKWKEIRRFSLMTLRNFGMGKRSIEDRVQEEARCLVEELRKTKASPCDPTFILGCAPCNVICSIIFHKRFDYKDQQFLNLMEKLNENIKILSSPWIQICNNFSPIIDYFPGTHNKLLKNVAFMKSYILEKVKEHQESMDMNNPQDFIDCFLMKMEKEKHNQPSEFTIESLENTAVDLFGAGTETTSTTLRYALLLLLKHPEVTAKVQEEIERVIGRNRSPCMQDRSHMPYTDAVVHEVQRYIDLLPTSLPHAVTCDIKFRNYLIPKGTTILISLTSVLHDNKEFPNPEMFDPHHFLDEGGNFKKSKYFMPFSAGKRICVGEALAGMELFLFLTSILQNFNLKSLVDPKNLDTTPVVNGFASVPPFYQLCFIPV
Description: as §1, §2, §3, §4, §5, §6

inhibition at 10 min, 10 µM [1] | inhibition at 10 min, 10 µM [2] | SMILES
1.32% | -3.32% | O=C(Nc1ccc(-c2cc3cc(F)c(-c4nnn[nH]4)cc3n2C2CCC2)cc1)C(=O)Nc1ccc(N2CCC(CO)CC2)cc1 [Example 23]
15.3% | 7.84% | O=C(Nc1ccc(-c2cc3cc(F)c(-c4nnn[nH]4)cc3n2C2CCC2)cc1)C(=O)Nc1ccc(N2CCC3(CCOC3)CC2)cc1 [Example 67]
7.06% | 6.51% | CC1(n2c(-c3ccc(NC(=O)C(=O)Nc4ccc(N5CCC6(CCOC6)CC5)cc4)cc3)cc3cc(F)c(-c4nnn[nH]4)cc32)CCC1 [Example 68]
